Drawing on article doi:10.1101/2024.12.01.626272v1 (biorxiv, 2024), this text covers EC50 for one compound.

The experiment concerns the target T1, olaAHR2a (Oryzias latipes, UniProt A0A2I4U6J3).
T1 sequence (A0A2I4U6J3 1-904): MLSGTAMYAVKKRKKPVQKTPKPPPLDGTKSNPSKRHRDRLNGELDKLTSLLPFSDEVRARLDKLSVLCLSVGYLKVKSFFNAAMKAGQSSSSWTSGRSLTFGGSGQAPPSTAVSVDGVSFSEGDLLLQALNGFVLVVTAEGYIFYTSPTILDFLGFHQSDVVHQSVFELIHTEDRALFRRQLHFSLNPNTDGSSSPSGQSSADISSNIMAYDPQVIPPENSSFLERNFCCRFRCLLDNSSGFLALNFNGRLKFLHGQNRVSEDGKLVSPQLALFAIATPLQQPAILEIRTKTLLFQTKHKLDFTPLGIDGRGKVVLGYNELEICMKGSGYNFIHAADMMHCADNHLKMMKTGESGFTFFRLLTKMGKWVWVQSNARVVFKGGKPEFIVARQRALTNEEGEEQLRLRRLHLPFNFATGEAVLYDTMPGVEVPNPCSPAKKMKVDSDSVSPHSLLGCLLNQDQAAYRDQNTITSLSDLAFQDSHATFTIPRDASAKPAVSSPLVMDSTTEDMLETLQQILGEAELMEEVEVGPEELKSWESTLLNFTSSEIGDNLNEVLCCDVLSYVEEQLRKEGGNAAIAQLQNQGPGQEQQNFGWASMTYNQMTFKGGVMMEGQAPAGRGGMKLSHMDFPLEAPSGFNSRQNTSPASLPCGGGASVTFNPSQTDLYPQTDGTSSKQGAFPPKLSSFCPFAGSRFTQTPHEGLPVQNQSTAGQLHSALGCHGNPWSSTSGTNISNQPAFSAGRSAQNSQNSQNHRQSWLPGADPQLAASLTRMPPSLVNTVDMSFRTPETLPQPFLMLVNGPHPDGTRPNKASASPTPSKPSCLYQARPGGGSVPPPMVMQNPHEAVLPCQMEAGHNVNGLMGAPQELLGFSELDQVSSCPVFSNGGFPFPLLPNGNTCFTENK
The experiment in a line: luciferase reporter transactivation. Type of experiment: cell-based. On the technique in general: A reporter such as luciferase makes a cellular process visible.

`O=c1cc(-c2ccccc2)oc2ccc3ccccc3c12` [BNF] had an EC50 of 19.4 ± 1.98 nM.

The term EC50 denotes the concentration needed to bring the measured effect to its halfway point.
